Measured values: patent publication EP0120428A1, “Benzopyran isomers” (BEECHAM GROUP PLC, priority 1983, dated 1984)

What was measured:
[1] = disclosed in European patent publication 9912; cited from earlier work
[2] = test system: Spontaneously hypertensive rats; experiment: Systolic blood pressure and heart rate by modified tail cuff method in spontaneously hypertensive rats; assay type: in vivo; details: 0.3 mg/kg p.o.; for %Change in Systolic Blood Blood: initial blood pressure 180±7mmHg; for %Change in Heart Rate: initial heart rate 507±5beats/min
Description: Systolic blood pressures were recorded by a modification of the tail cuff method described by I.M. Claxton, M.G. Palfreyman, R.H. Poyser, R.L. Whiting, European Journal of Pharmacology, 37, 179 (1976).
W+W BP recorder, model 8005, was used to display pulses. Prior to all measurments rats were placed in a heated environment (33.5±0.5°C) before transfer to a restraining cage. Each determination of blood pressure was the mean of at least 6 readings. Spontaneously hypertensive rats (ages 12-18 weeks) with systolic blood pressures >170 mmHg were considered hypertensive.

[3] = 5 rats, 2 hours post dose (2 rats had no measurable pulse)
[4] = 5 rats, 4 hours post dose (3 rats had no measurable pulse)
[5] = 5 rats, 6 hours post dose (2 rats had no measurable pulse)
[6] = 24 hours post dose (4 rats only)

SMILES	blood pressure lowering activity [1]	%Change in Systolic Blood Blood ([2]; 5 rats, 1 hour post dose)	%Change in Systolic Blood Blood [2, 3]	%Change in Systolic Blood Blood [2, 4]	%Change in Systolic Blood Blood [2, 5]	%Change in Heart Rate ([2]; 5 rats, 1 hour post dose)	%Change in Heart Rate [2, 3]	%Change in Heart Rate [2, 4]	%Change in Heart Rate [2, 5]	%Change in Systolic Blood Blood [2, 6]	%Change in Heart Rate [2, 6]
CC1(C)Oc2ccc(C#N)cc2[C@@H](N2CCCC2)[C@@H]1O (relative stereo) [6-cyano-3,4-dihydro-2,2-dimethyl-trans 4-pyrrolidino-2H-benzo[b]pyran-3-ol]	has blood pressure lowering activity										
CC1(C)Oc2ccc(C#N)cc2[C@@H](N2CCCC2=O)[C@@H]1O (relative stereo) [Compound (1) of Example (3S,4R)-isomer, 6-cyano-3,4-dihydro-2,2-dimethyl-trans-4-(2-oxo-1-pyrrolidinyl)-2H-benzo[b]pyran-3-ol]		-59 ± 4%	-52 ± 7%	-32%	-28 ± 8%	-2 ± 2%	-6 ± 3%	-15%	-5 ± 1%	-14 ± 7%	-3 ± 2%
CC1(C)Oc2ccc(C#N)cc2[C@@H](N2CCCC2)[C@@H]1O (single isomer, unassigned; isomer 6) [(+)-isomer, 6-cyano-3,4-dihydro-2,2-dimethyl-trans 4-pyrrolidino-2H-benzo[b]pyran-3-ol]	greater blood pressure lowering activity than the (-)- isomer										
